pIC50: −log10 of the molar value. Active and inactive are the calls of the source. The calls are words filed in the database; no cut-off is given here.
Columns and labels:
SK-MEL-28 [1] = experiment: (§1) Induction of apoptosis in human SK-MEL-28 cells assessed as late apoptotic cells at 1 uM preincubated for 24 hrs under normoxic condition followed by media removal and irradiated with 650 nm 10 mW/cm2 light for 15 mins under normoxic condition by Annexin V-FITC/propidium iodide staining based flow cytometry (reference value: 1.95%); type: functional
SK-MEL-28 [2] = experiment: as §1, with “hypoxic” for “normoxic”; type: functional
SK-MEL-28 [3] = experiment: as §1, with “early” for “late”, “1.8%)” for “1.95%)”; type: functional
[4] = Drug uptake in human EA.hy 926 cells at 1 uM measured after 24 hrs by flow cytometry; type: ADME, cell-based; conditions: ea.hy 926, 24 h
SK-MEL-28 [5] = experiment: Induction of ROS generation in human SK-MEL-28 cells at 1 uM incubated for 24 hrs under normoxic condition prior to DHE addition for 30 mins followed by media removal and irradiated with 650 nm 10 mW/cm2 light for 15 mins under normoxic condition by DAPI staining based fluorescence microscopy; type: functional, cell-based
SK-MEL-28 [6] = experiment: as §1, with “necrotic” for “late apoptotic”, “hypoxic” for “normoxic”, “2.63%)” for “1.95%)”; type: functional
SK-MEL-28 [7] = experiment: as §1, with “at 0.5” for “at 1”, “under hypoxic” for “under normoxic”; type: functional
[8] = Induction of ROS generation in methanol solution assessed as increase in superoxide anion radical level by measuring fold increase in DHR123 fluorescence intensity at 10 uM irradiated with 650 nm 10 mW/cm2 light for upto 15 mins by DHR123 probe based fluorescence spectra analysis relative to control; type: functional
SK-MEL-28 [9] = experiment: as §1, with “as viable” for “as late apoptotic”, “at 0.5” for “at 1”, “under hypoxic” for “under normoxic”, “value: 93.62%)” for “value: 1.95%)”; type: functional; conditions: SK-MEL-28, light or radiation study, read-out: Activity
[10] = Dark toxicity in human SK-MEL-28 cells assessed as reduction in cell viability by MTT assay; type: cell-based
SK-MEL-28 [11] = experiment: as §1, with “as viable” for “as late apoptotic”, “at 0.5” for “at 1”, “value: 93.62%)” for “value: 1.95%)”; type: functional; conditions: SK-MEL-28, light or radiation study, read-out: Activity
[12] = Drug uptake in HEK293 cells at 1 uM measured after 24 hrs by flow cytometry; type: ADME, cell-based; conditions: human, hek293, 24 h
[13] = Induction of ROS generation in methanol solution assessed as increase in singlet oxygen level by measuring reduction in ABDA absorption peak at 10 uM irradiated with 650 nm 10 mW/cm2 light for upto 9 mins by ABDA probe based UV-vis absorption spectra analysis; type: functional
SK-MEL-28 [14] = experiment: as §1, with “at 0.5” for “at 1”; type: functional
SK-MEL-28 [15] = experiment: as §1, with “viable” for “late apoptotic”, “93.62%)” for “1.95%)”; type: functional; conditions: SK-MEL-28, light or radiation study, read-out: Activity
SK-MEL-28 [16] = experiment: as §1, with “as early” for “as late”, “at 0.5” for “at 1”, “under hypoxic” for “under normoxic”, “value: 1.8%)” for “value: 1.95%)”; type: functional
U-87 MG = experiment: (§2) Cytotoxicity against human U87 cells assessed as reduction in cell viability at 0.008 to 1 uM preincubated for 24 hrs under hypoxic condition followed by media removal and irradiated with 650 nm 10 mW/cm2 light for 15 mins under hypoxic condition prior to media replacement and measured after 24 hrs by MTT assay; type: functional, cell-based; conditions: U-87MG ATCC, dose 0.008-1 µM
SK-MEL-28 [17] = experiment: as §1, with “as viable” for “as late apoptotic”, “at 2” for “at 1”, “under hypoxic” for “under normoxic”, “value: 93.62%)” for “value: 1.95%)”; type: functional; conditions: SK-MEL-28, light or radiation study, read-out: Activity
SK-MEL-28 [18] = experiment: Induction of ROS generation in human SK-MEL-28 cells at 1 uM incubated for 24 hrs under hypoxic condition prior to DHE addition for 30 mins followed by media removal and irradiated with 650 nm 10 mW/cm2 light for 15 mins under hypoxic condition by DAPI staining based fluorescence microscopy; type: functional, cell-based
SK-MEL-28 [19] = experiment: as §1, with “viable” for “late apoptotic”, “hypoxic” for “normoxic”, “93.62%)” for “1.95%)”; type: functional; conditions: SK-MEL-28, light or radiation study, read-out: Activity
SK-MEL-28 [20] = experiment: as §1, with “early” for “late”, “hypoxic” for “normoxic”, “1.8%)” for “1.95%)”; type: functional
SK-MEL-28 [21] = experiment: as §2, with “SK-MEL-28” for “U87”, “viability” for “viability at 0.008 to 1 uM”; type: functional, cell-based; conditions: SK-MEL-28, light or radiation study
SK-MEL-28 [22] = experiment: as §1, with “at 2” for “at 1”, “under hypoxic” for “under normoxic”; type: functional
SK-MEL-28 [23] = experiment: as §1, with “as necrotic” for “as late apoptotic”, “at 2” for “at 1”, “value: 2.63%)” for “value: 1.95%)”; type: functional
SK-MEL-28 [24] = experiment: as §1, with “as early” for “as late”, “at 2” for “at 1”, “under hypoxic” for “under normoxic”, “value: 1.8%)” for “value: 1.95%)”; type: functional
SK-MEL-28 [25] = experiment: as §1, with “as necrotic” for “as late apoptotic”, “at 0.5” for “at 1”, “value: 2.63%)” for “value: 1.95%)”; type: functional
[26] = Drug uptake in human SK-MEL-28 cells at 1 uM measured after 24 hrs by flow cytometry; type: ADME, cell-based; conditions: sk-mel-28, 24 h
A549 = experiment: as §2, with “A549” for “U87”, “normoxic” for “hypoxic”; type: functional, cell-based; conditions: dose 0.008-1 µM
SK-MEL-28 [27] = experiment: as §1, with “as necrotic” for “as late apoptotic”, “at 2” for “at 1”, “under hypoxic” for “under normoxic”, “value: 2.63%)” for “value: 1.95%)”; type: functional
SK-MEL-28 [28] = experiment: as §1, with “as viable” for “as late apoptotic”, “at 2” for “at 1”, “value: 93.62%)” for “value: 1.95%)”; type: functional; conditions: SK-MEL-28, light or radiation study, read-out: Activity
SK-MEL-28 [29] = experiment: as §1, with “as necrotic” for “as late apoptotic”, “at 0.5” for “at 1”, “under hypoxic” for “under normoxic”, “value: 2.63%)” for “value: 1.95%)”; type: functional
SK-MEL-28 [30] = experiment: as §1, with “as early” for “as late”, “at 2” for “at 1”, “value: 1.8%)” for “value: 1.95%)”; type: functional
SK-MEL-28 [31] = experiment: as §2, with “SK-MEL-28” for “U87”, “viability” for “viability at 0.008 to 1 uM”, “normoxic” for “hypoxic”; type: functional, cell-based; conditions: SK-MEL-28, light or radiation study

## CCN(CC)c1ccc2nc3c4ccccc4/c(=N\CCCCCCNC(=O)c4cc(Oc5ccc(NC(=O)Nc6ccc(Cl)c(C(F)(F)F)c6)cc5)ccn4)cc-3sc2c1
SK-MEL-28 [1]
  Activity: 8.8%
SK-MEL-28 [2]
  Activity: 7.57%
SK-MEL-28 [3]
  Activity: 3.59%
[4]
  Drug uptake: Active
SK-MEL-28 [5]
  Activity: Active
SK-MEL-28 [6]
  Activity: 19.45%
SK-MEL-28 [7]
  Activity: 7.05%
[8]
  fold change (FC): 6.6
SK-MEL-28 [9]
  viability at 0.5 µM: 78.3%
[10]
  pIC50: < 5.00
SK-MEL-28 [11]
  viability at 0.5 µM: 73.2%
[12]
  Drug uptake: Active
[13]
  Activity: inactive
SK-MEL-28 [14]
  Activity: 2.86%
SK-MEL-28 [15]
  viability at 1 µM: 64.6%
SK-MEL-28 [16]
  Activity: 3.13%
U-87 MG
  Activity: Active
SK-MEL-28 [17]
  viability at 2 µM: 53%
SK-MEL-28 [18]
  Activity: Active
SK-MEL-28 [19]
  viability at 1 µM: 69%
SK-MEL-28 [20]
  Activity: 3.97%
SK-MEL-28 [21]
  pIC50: 6.80
SK-MEL-28 [22]
  Activity: 17.67%
SK-MEL-28 [23]
  Activity: 6.54%
SK-MEL-28 [24]
  Activity: 10.55%
SK-MEL-28 [25]
  Activity: 11.1%
[26]
  Drug uptake: Active
A549
  Activity: Active
SK-MEL-28 [27]
  Activity: 18.77%
SK-MEL-28 [28]
  viability at 2 µM: 27.2%
SK-MEL-28 [29]
  Activity: 11.5%
SK-MEL-28 [30]
  Activity: 39.5%
SK-MEL-28 [31]
  pIC50: 7.00
